US11077090B2, “Compounds and compositions and uses thereof” (Sunovion Pharmaceuticals Inc., priority 2016, dated 2021)
Read-outs that look alike come from different tables or passages of the source.

System: compound-treated mice
Experiment: Neuropharmacological assay (SmartCube): behavioral activity signature and minimal effective dose
Type: in vivo
Conditions: for minimal effective dose: Mus musculus, ip; for AD: ADHD (probability of activity signature) / AG: analgesic (probability of activity signature) / AX: anxiolytic (probability of activity signature) / CE: cognitive enhancer (probability of activity signature) / DP: anti-depressant (probability of activity signature) / MS: mood stabilizer (probability of activity signature) / PS: anti-psychotic (probability of activity signature) / SD: sedative hypnotic (probability of activity signature) / UN: uncharacterized CNS activity (probability of activity signature): i.p. 15 min before test, most efficacious dose(s)
Outline: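 Video-recorded behavior is compared algorithmically against a reference-compound database, yielding class probabilities (best dose reported). Compounds given i.p. in NMP/PEG/propylene glycol 15 min pre-test at 3 doses; potency as MED, the dose (mpk, range usually 0.3–30) reaching ≥50% total activity.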

[1] = MED = dose having 50% or more total activity, read-out: Potency: minimal effective dose (MED), binned

Cc1ccc2c(c1)[C@@H](N)[C@H](C)OC2 [Example 156] was tested, and the minimal effective dose (MED = dose having 50% or more total activity, read-out: Potency: minimal effective dose (MED)) was 3 to 10 mg/kg, the “AD: ADHD (probability of activity signature)” value (from here on “AD: ADHD”) was “+ (LOQ ≤ + <5%)” and the “AG: analgesic (probability of activity signature)” value (“AG: analgesic” for short) was “++ (5% ≤ ++ <25%)”. The “AX: anxiolytic (probability of activity signature)” value (from here on “AX: anxiolytic”) was “++ (5% ≤ ++ <25%)”, the “CE: cognitive enhancer (probability of activity signature)” value (shortened to “CE: cognitive enhancer”) was “++ (5% ≤ ++ <25%)” and the “DP: anti-depressant (probability of activity signature)” value (“DP: anti-depressant” below) was “+ (LOQ ≤ + <5%)”. The “MS: mood stabilizer (probability of activity signature)” value (shortened to “MS: mood stabilizer”) was “+ (LOQ ≤ + <5%)”, the “PS: anti-psychotic (probability of activity signature)” value (“PS: anti-psychotic” for short) was “+ (LOQ ≤ + <5%)” and the “SD: sedative hypnotic (probability of activity signature)” value (shortened to “SD: sedative hypnotic”) was “+ (LOQ ≤ + <5%)”. For the same compound, the “UN: uncharacterized CNS activity (probability of activity signature)” value (shortened to “UN: uncharacterized CNS activity”) was “+++ (25% ≤ +++ <50%)”.
With C[C@H]1OCc2cccc(Cl)c2[C@@H]1N [Example 159] the minimal effective dose [1] was 3 to 10 mg/kg, the “AD: ADHD” value was “+ (LOQ ≤ + <5%)” and the “AG: analgesic” value was “+ (LOQ ≤ + <5%)”. For the same compound, the “AX: anxiolytic” value was “+++ (25% ≤ +++ <50%)”, the “CE: cognitive enhancer” value was “+ (LOQ ≤ + <5%)” and the “DP: anti-depressant” value was “+++ (25% ≤ +++ <50%)”. The “MS: mood stabilizer” value was “+ (LOQ ≤ + <5%)”, the “PS: anti-psychotic” value was “+ (LOQ ≤ + <5%)” and the “SD: sedative hypnotic” value was “+ (LOQ ≤ + <5%)”. The “UN: uncharacterized CNS activity” value was “++ (5% ≤ ++ <25%)”.
CC[C@H]1OCc2ccc(F)cc2[C@@H]1N [Example 181] was tested, and the minimal effective dose [1] was < 3 mg/kg, the “AD: ADHD” value was “+ (LOQ ≤ + <5%)” and the “AG: analgesic” value was “++ (5% ≤ ++ <25%)”. For the same compound, the “AX: anxiolytic” value was “++ (5% ≤ ++ <25%)”, the “CE: cognitive enhancer” value was “++ (5% ≤ ++ <25%)” and the “DP: anti-depressant” value was “+ (LOQ ≤ + <5%)”. The “MS: mood stabilizer” value was “+ (LOQ ≤ + <5%)”, the “PS: anti-psychotic” value was “++ (5% ≤ ++ <25%)” and the “SD: sedative hypnotic” value was “+++ (25% ≤ +++ <50%)”. The “UN: uncharacterized CNS activity” value was “++++ (50% ≤ ++++)”.
CC[C@@H]1OCc2ccc(F)cc2[C@H]1N [Example 182] was tested, and the minimal effective dose [1] was < 3 mg/kg, the “AD: ADHD” value was “+ (LOQ ≤ + <5%)” and the “AG: analgesic” value was “+ (LOQ ≤ + <5%)”. For the same compound, the “AX: anxiolytic” value was “++ (5% ≤ ++ <25%)”, the “CE: cognitive enhancer” value was “++ (5% ≤ ++ <25%)” and the “DP: anti-depressant” value was “++ (5% ≤ ++ <25%)”. The “MS: mood stabilizer” value was “+ (LOQ ≤ + <5%)”, the “PS: anti-psychotic” value was “+++ (25% ≤ +++ <50%)” and the “SD: sedative hypnotic” value was “+ (LOQ ≤ + <5%)”. The “UN: uncharacterized CNS activity” value was “++++ (50% ≤ ++++)”.
For C[C@H]1OCc2ccc(F)cc2[C@@H]1N [Example 183], the minimal effective dose [1] was < 3 mg/kg, the “AD: ADHD” value was “+ (LOQ ≤ + <5%)” and the “AG: analgesic” value was “++ (5% ≤ ++ <25%)”. The “AX: anxiolytic” value was “++ (5% ≤ ++ <25%)”, the “CE: cognitive enhancer” value was “++ (5% ≤ ++ <25%)” and the “DP: anti-depressant” value was “++ (5% ≤ ++ <25%)”. The “MS: mood stabilizer” value was “+ (LOQ ≤ + <5%)”, the “PS: anti-psychotic” value was “++ (5% ≤ ++ <25%)” and the “SD: sedative hypnotic” value was “++ (5% ≤ ++ <25%)”. For the same compound, the “UN: uncharacterized CNS activity” value was “++++ (50% ≤ ++++)”.
In the case of C[C@@H]1OCc2ccc(F)cc2[C@H]1N [Example 184], the “Potency: minimal effective dose (MED), binned” value (MED = dose having 50% or more total activity) is reported as “A (≤3 mpk)”, the “AD: ADHD” value is reported as “+ (LOQ ≤ + <5%)” and the “AG: analgesic” value is reported as “+ (LOQ ≤ + <5%)”. For the same compound, the “AX: anxiolytic” value was “++ (5% ≤ ++ <25%)”, the “CE: cognitive enhancer” value was “++ (5% ≤ ++ <25%)” and the “DP: anti-depressant” value was “++ (5% ≤ ++ <25%)”. For the same compound, the “MS: mood stabilizer” value was “+ (LOQ ≤ + <5%)”, the “PS: anti-psychotic” value was “++ (5% ≤ ++ <25%)” and the “SD: sedative hypnotic” value was “+ (LOQ ≤ + <5%)”. For the same compound, the “UN: uncharacterized CNS activity” value was “++++ (50% ≤ ++++)”.
In the case of C[C@@H]1OCc2ccc(F)cc2[C@@H]1N [Example 185], the minimal effective dose [1] is reported as < 3 mg/kg, the “AD: ADHD” value is reported as “+ (LOQ ≤ + <5%)” and the “AG: analgesic” value is reported as “++ (5% ≤ ++ <25%)”. For the same compound, the “AX: anxiolytic” value was “+++ (25% ≤ +++ <50%)”, the “CE: cognitive enhancer” value was “++ (5% ≤ ++ <25%)” and the “DP: anti-depressant” value was “+ (LOQ ≤ + <5%)”. The “MS: mood stabilizer” value was “+ (LOQ ≤ + <5%)”, the “PS: anti-psychotic” value was “++ (5% ≤ ++ <25%)” and the “SD: sedative hypnotic” value was “+ (LOQ ≤ + <5%)”. For the same compound, the “UN: uncharacterized CNS activity” value was “++++ (50% ≤ ++++)”.
C[C@H]1OCc2ccc(F)cc2[C@H]1N [Example 186] was tested, and the minimal effective dose [1] was 3 to 10 mg/kg, the “AD: ADHD” value was “+ (LOQ ≤ + <5%)” and the “AG: analgesic” value was “++ (5% ≤ ++ <25%)”. For the same compound, the “AX: anxiolytic” value was “++ (5% ≤ ++ <25%)”, the “CE: cognitive enhancer” value was “++ (5% ≤ ++ <25%)” and the “DP: anti-depressant” value was “++ (5% ≤ ++ <25%)”. For the same compound, the “MS: mood stabilizer” value was “+ (LOQ ≤ + <5%)”, the “PS: anti-psychotic” value was “++ (5% ≤ ++ <25%)” and the “SD: sedative hypnotic” value was “+ (LOQ ≤ + <5%)”. For the same compound, the “UN: uncharacterized CNS activity” value was “+++ (25% ≤ +++ <50%)”.
For CC[C@@H]1OCc2ccc(F)cc2[C@@H]1N [Example 187], the minimal effective dose [1] was < 3 mg/kg, the “AD: ADHD” value was “+ (LOQ ≤ + <5%)” and the “AG: analgesic” value was “++ (5% ≤ ++ <25%)”. The “AX: anxiolytic” value was “++ (5% ≤ ++ <25%)”, the “CE: cognitive enhancer” value was “++ (5% ≤ ++ <25%)” and the “DP: anti-depressant” value was “+ (LOQ ≤ + <5%)”. For the same compound, the “MS: mood stabilizer” value was “+ (LOQ ≤ + <5%)”, the “PS: anti-psychotic” value was “+++ (25% ≤ +++ <50%)” and the “SD: sedative hypnotic” value was “+ (LOQ ≤ + <5%)”. The “UN: uncharacterized CNS activity” value was “++++ (50% ≤ ++++)”.
In the case of CC[C@H]1OCc2ccc(F)cc2[C@H]1N [Example 188], the minimal effective dose [1] is reported as < 3 mg/kg, the “AD: ADHD” value is reported as “+ (LOQ ≤ + <5%)” and the “AG: analgesic” value is reported as “++ (5% ≤ ++ <25%)”. The “AX: anxiolytic” value was “++ (5% ≤ ++ <25%)”, the “CE: cognitive enhancer” value was “+ (LOQ ≤ + <5%)” and the “DP: anti-depressant” value was “++ (5% ≤ ++ <25%)”. For the same compound, the “MS: mood stabilizer” value was “+ (LOQ ≤ + <5%)”, the “PS: anti-psychotic” value was “++ (5% ≤ ++ <25%)” and the “SD: sedative hypnotic” value was “+ (LOQ ≤ + <5%)”. The “UN: uncharacterized CNS activity” value was “++++ (50% ≤ ++++)”.
With Cc1ccc2c(c1)CO[C@@H](C)[C@H]2N [Example 189] the minimal effective dose [1] was 10 to 30 mg/kg, the “AD: ADHD” value was “+ (LOQ ≤ + <5%)” and the “AG: analgesic” value was “++ (5% ≤ ++ <25%)”. For the same compound, the “AX: anxiolytic” value was “++ (5% ≤ ++ <25%)”, the “CE: cognitive enhancer” value was “++ (5% ≤ ++ <25%)” and the “DP: anti-depressant” value was “++ (5% ≤ ++ <25%)”. The “MS: mood stabilizer” value was “+ (LOQ ≤ + <5%)”, the “PS: anti-psychotic” value was “++ (5% ≤ ++ <25%)” and the “SD: sedative hypnotic” value was “+ (LOQ ≤ + <5%)”. The “UN: uncharacterized CNS activity” value was “+++ (25% ≤ +++ <50%)”.
